Test results: patent publication US8063048B2, “Acetylenyl-pyrazolo-pyrimidine derivatives” (Hoffmann-La Roche Inc., priority 2005, dated 2011)

Key:
mGlu2 receptor = biological target: T1, mGlu2 receptor (Rattus norvegicus, UniProt P31421); test: [3H]-LY354740 binding on mGlu2 transfected CHO cell membranes; conditions: inhibition of 10 nM [3H]-LY354740 binding, membranes of CHO cells transfected with rat mGlu2, room temperature, 1 hour
T1 construct: expressed in transfected cells; membranes prepared
T1 sequence (P31421 19-872): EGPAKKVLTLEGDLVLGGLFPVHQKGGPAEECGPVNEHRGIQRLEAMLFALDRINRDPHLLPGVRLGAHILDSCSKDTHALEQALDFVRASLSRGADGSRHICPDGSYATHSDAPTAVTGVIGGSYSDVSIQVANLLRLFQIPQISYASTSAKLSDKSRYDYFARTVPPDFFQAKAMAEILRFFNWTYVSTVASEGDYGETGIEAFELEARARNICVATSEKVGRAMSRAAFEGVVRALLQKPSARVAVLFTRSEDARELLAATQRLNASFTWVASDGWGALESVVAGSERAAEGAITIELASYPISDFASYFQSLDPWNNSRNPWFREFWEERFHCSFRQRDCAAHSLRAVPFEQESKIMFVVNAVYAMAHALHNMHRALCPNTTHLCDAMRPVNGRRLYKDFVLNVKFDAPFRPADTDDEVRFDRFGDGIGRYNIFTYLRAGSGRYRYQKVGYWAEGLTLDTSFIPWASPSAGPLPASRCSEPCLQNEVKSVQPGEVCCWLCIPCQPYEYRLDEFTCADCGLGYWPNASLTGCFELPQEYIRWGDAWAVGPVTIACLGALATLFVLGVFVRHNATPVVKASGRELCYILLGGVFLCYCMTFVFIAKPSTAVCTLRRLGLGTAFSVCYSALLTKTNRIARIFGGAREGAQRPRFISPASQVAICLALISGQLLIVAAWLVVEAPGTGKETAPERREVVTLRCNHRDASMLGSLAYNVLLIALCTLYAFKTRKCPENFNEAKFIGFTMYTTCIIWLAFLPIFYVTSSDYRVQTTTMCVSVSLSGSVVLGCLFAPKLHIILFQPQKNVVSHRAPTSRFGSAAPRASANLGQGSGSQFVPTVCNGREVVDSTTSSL
From the text: [^3H]-LY354740 Binding on mGlu2 Transfected CHO Cell Membranes. Transfection and Cell Culture
cDNA encoding the rat mGlu2 receptor protein in pBluescript II was subcloned into the eukaryotic expression vector pcDNA I-amp from Invitrogen Ltd (Paisley, UK). This vector construct (pcD1mGR^2) was co-transfected with a psvNeo plasmid encoding the gene for neomycin resistance, into CHO cells by a modified calcium phosphate method described by Chen & Okayama (1988). The cells were maintained in Dulbecco's Modified Eagle medium with reduced L-glutamine (2 mM final concentration) and 10% dialyzed fetal calf serum from Gibco-Invitrogen (Carlsbad, Calif., USA). Selection was made in the presence of G-418 (1000 ug/mL final) and MCPG[…]. Clones were identified by reverse transcription of 5 μg total RNA, followed by PCR using mGlu2 receptor specific primers 5′-[…]-3′ and 5′-[…]-3′ in 60 mM Tris HCl (pH 10), 15 mM (NH4)2SO4, 2 mM MgCl2, 25 units/mLTaq Polymerase with 30 cycles annealing at 60° C. for 1 min., extention at 72° C. for 30 s, and 1 min. 95° C. denaturation.
Cells, cultured as above, were harvested and washed three times with cold PBS and frozen at −80° C. The pellet was resuspended in cold 20 mM HEPES-NaOH buffer containing 10 mM EDTA (pH 7.4) and homogenized with a polytron (Kinematica, AG, Littau, Switzerland) for 10 s at 10 000 rpm. After centrifugation for 30 min. at 4° C., the pellet was washed once with the same buffer, and once with cold 20 mM HEPES-NaOH buffer containing 0.1 mM EDTA, (pH 7.4). Protein content was measured using the micro BCA method from Pierce-Perbio (Rockford, Ill., USA) using bovine serum albumin as standard.
After thawing, the membranes were resuspended in cold 50 mM Tris-HCl buffer containing 2 mM MgCl2 (pH 7) (binding buffer). The final concentration of the membranes in the assays was 25 μg protein/ml. Inhibition experiments were performed with membranes incubated with 10 nM [^3H]-LY354740 at room temperature, for 1 hour, in presence of various concentrations of the compound to be tested. Following the incubations, membranes were filtered onto Whatmann GF/B glass fiber filters and washed 5 times with cold binding buffer. Non specific binding was measured in the presence of 10 μM DCG IV. After transfer of the filters into plastic vials containing 10 mL of Ultima-gold scintillation fluid from Perkin-Elmer (Boston, Mass., USA), the radioactivity was measured by liquid scintillation in a Tri-Carb 2500 TR counter (Packard, Zürich, Switzerland).
The inhibition curves were fitted with a four parameter logistic equation giving IC50 values, and Hill coefficients.

Ki (mGlu2 receptor) [nM]	melting point [°C]	SMILES
9	306 to 307	NS(=O)(=O)c1cc(C#Cc2cnc3c(C(F)(F)F)cc(-c4ccc(C(F)(F)F)cc4)cn23)c(F)cc1F [Example 180, 2,4-Difluoro-5-[8-trifluoromethyl-6-(4-trifluoromethyl-phenyl)-imidazo[1,2-a]pyridin-3-ylethynyl]-benzenesulfonamide]
1	255	NS(=O)(=O)c1ccc(C#Cc2ncn3c(C(F)(F)F)cc(-c4ccc(C(F)(F)F)cc4)nc23)s1 [Example 179, 5-[4-Trifluoromethyl-2-(4-trifluoromethyl-phenyl)-imidazo[1,5-a]pyrimidin-8-ylethynyl]-thiophene-2-sulfonic acid amide]
4	–	CC(CO)(CO)NS(=O)(=O)c1cncc(C#Cc2cnn3c(C(F)(F)F)cc(-c4ccc(Cl)c(Cl)c4)nc23)c1 [Example 91, 5-[5-(3,4-Dichloro-phenyl)-7-trifluoromethyl-pyrazolo[1,5-a]pyrimidin-3-ylethynyl]-pyridine-3-sulfonic acid (2-hydroxy-1-hydroxymethyl-1-methyl-ethyl)-amide]
8	290	NS(=O)(=O)c1ccc(C#Cc2ncn3c(C(F)(F)F)cc(-c4ccc(C(F)(F)F)cc4)nc23)cc1 [Example 178, 4-[4-Trifluoromethyl-2-(4-trifluoromethyl-phenyl)-imidazo[1,5-a]pyrimidin-8-ylethynyl]-benzenesulfonamide]
8	250	CN1CCN(S(=O)(=O)c2ccc(C#Cc3cnn4c(C(F)(F)F)cc(-c5ccc(C(F)(F)F)cc5)nc34)s2)CC1 [Example 157, 3-[5-(4-Methyl-piperazine-1-sulfonyl)-thiophen-2-ylethynyl]-7-trifluoromethyl-5-(4-trifluoromethyl-phenyl)-pyrazolo[1,5-a]pyrimidine]
3	213 to 214	NS(=O)(=O)c1ccc(C#Cc2cnn3c(C4CC4)cc(-c4ccc(Cl)c(Cl)c4)nc23)s1 [Example 86, 5-[7-Cyclopropyl-5-(3,4-dichloro-phenyl)-pyrazolo[1,5-a]pyrimidin-3-ylethynyl]-thiophene-2-sulfonic acid amide]
2	243	NS(=O)(=O)c1cccc(C#Cc2cnn3c(C(F)(F)F)cc(-c4ccc(C(F)(F)F)cc4)nc23)c1 [Example 1, 3-[7-Trifluoromethyl-5-(4-trifluoromethyl-phenyl)-pyrazolo[1,5-a]pyrimidin-3-ylethynyl]-benzenesulfonamide]
–	170 to 171	CC(C)(O)c1ccc(C#Cc2cnn3c(C(F)(F)F)cc(-c4ccc(C(F)(F)F)cc4)nc23)cc1 [Example 202, 2-{4-[7-Trifluoromethyl-5-(4-trifluoromethyl-phenyl)-pyrazolo[1,5-a]pyrimidin-3-ylethynyl]-phenyl}-propan-2-ol]
–	308 to 310	NS(=O)(=O)c1cc(C#Cc2cnn3c(C(F)(F)F)cc(-c4ccc(Cl)c(Cl)c4)nc23)c(F)cc1F [Example 92, 5-[5-(3,4-Dichloro-phenyl)-7-trifluoromethyl-pyrazolo[1,5-a]pyrimidin-3-ylethynyl]-2,4-difluoro-benzenesulfonamide]
–	230 to 232	NS(=O)(=O)c1ccc(C#Cc2cnn3c(C(F)F)cc(-c4ccc(C(F)(F)F)cc4)nc23)c(F)c1 [Example 48, 4-[7-Difluoromethyl-5-(4-trifluoromethyl-phenyl)-pyrazolo[1,5-a]pyrimidin-3-ylethynyl]-3-fluoro-benzenesulfonamide]
–	149 to 150	O=S(=O)(NCCO)c1cc(C#Cc2cnn3c(C(F)F)cc(-c4ccc(C(F)(F)F)cc4)nc23)c(F)cc1F [Example 135, 5-[7-Difluoromethyl-5-(4-trifluoromethyl-phenyl)-pyrazolo[1,5-a]pyrimidin-3-ylethynyl]-2,4-difluoro-N-(2-hydroxy-ethyl)-benzenesulfonamide]
